Numbered stars: 1 amine (or outer) side, 2 acyl side, 3 side chain; on linkers, the order of the positions; unused ones are H or OH. Bridge positions count the residues as written; N and C are the ends. Square brackets hold non-standard residues; d marks the D form. Side chains are listed from the residue outwards. Peptide text beside a SMILES is read from it. * marks the point of attachment. C18 diacid = O=C(O)CCCCCCCCCCCCCCCCC(=O)*; γGlu = O=C(O)[C@H](CCC(=O)[*:2])N[*:1]; Dab = NCC[C@H](N)C(=O)O; Aib = CC(C)(N)C(=O)O
Tests used:
[1] = molecular target: T1, human amylin receptor (calcitonin receptor co-expressed with receptor activity modifying protein, RAMP3) (hAMYR3) (Homo sapiens, UniProt O60896+P30988); assay: cAMP production in 1321N1 cells with stable recombinant expression of human amylin receptor (hAMYR3); type: cell-based; details: for Ratio (selectivity hAMYR vs hCTR, ratio of EC50 values at the two receptors): EC50 hCTR / EC50 hAMYR3; for EC50: cAMP, 1321N1 cells, assay buffer with 0.1% BSA, read-out: EC50 (pM) hAMYR3
T1 construct: expressed in transfected cells
T1 sequence (P30988 25-474): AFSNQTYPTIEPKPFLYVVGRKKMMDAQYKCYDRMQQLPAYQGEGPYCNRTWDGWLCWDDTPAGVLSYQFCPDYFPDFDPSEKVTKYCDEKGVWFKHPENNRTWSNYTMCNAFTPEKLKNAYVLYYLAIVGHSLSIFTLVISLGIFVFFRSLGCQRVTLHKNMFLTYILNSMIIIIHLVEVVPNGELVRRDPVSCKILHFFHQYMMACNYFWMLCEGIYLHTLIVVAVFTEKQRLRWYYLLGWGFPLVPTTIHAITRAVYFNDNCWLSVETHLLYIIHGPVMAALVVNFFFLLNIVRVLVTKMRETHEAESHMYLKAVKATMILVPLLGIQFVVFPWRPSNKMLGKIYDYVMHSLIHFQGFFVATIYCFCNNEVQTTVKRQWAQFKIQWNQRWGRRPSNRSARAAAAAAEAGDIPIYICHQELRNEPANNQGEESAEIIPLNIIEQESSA
T1 sequence (O60896 24-148 partner): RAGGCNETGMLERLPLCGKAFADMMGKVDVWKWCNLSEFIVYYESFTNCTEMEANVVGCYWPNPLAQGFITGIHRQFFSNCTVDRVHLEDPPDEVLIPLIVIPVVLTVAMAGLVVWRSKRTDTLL
Protocol: (§1) The functional activities of lipidated pramlintide analogue peptides, such as cAMP production, were tested in 1321N1 cell line with stable recombinant expression of human calcitonin receptor (hCTR) or human amylin receptor (calcitonin receptor co-expressed with receptor activity modifying protein, RAMP3) (hAMYR3) or HEK cells with stable recombinant expression of rat calcitonin receptor (rat CTR) or rat amylin receptor (calcitonin receptor co-expressed with receptor activity modifying protein, RAMP3) (Rat AMYR3).
(§2) Cryopreserved cell stock was thawed rapidly in a water-bath, suspended in assay buffer (0.1% BSA (Sigma # A3059) in HBSS (Sigma # H8264) with 25 mM HEPES, pH 7.4 and containing 0.5 mM IB MX (Sigma# 17018)) and spun at 240×g for 5 minutes. Cells were re-suspended in assay buffer at a batch-dependent optimized concentration (e.g. hCTR cells at 0.125×10^5 cells/mL, hAMYR3 cells at 0.125×10^5 cells/mL, rat CTR cells at 1x10^5 cells/mL, rat AMYR3 at 2×10^5 cells/mL).
(§3) The test peptide stock was prepared in DMSO and diluted in assay buffer to reach stated concentrations and transferred in duplicates into a 384-black shallow well microtitre assay plate (Corning # 3676). Cells were added to the assay plate, incubated at room temperature for 30 minutes and the cAMP level measured using cAMP dynamic 2 HTRF kit (Cisbio, Cat # 62AM4PEJ), following the two step protocol as per manufacturer's recommendations. The plates were read on an Envision (Perkin Elmer) using excitation wavelength of 320 nm and emission wavelengths of 620nm & 665 nm.
(§4) Data was transformed to % Delta F as described in the manufacturer's guidelines and analyzed as percent activation of maximal amylin or calcitonin effect by 4-parameter logistic fit to determine EC50 values. The selectivity of a peptide to hAMYR vs hCTR is defined as a ratio of EC50 values at the two receptors.

[2] = molecular target: T2, human calcitonin receptor (hCTR) (Homo sapiens, UniProt P30988); assay: cAMP production in 1321N1 cells with stable recombinant expression of human calcitonin receptor (hCTR); type: cell-based; details: cAMP, 1321N1 cells, assay buffer with 0.1% BSA; read-out: EC50 (pM) hCTR
T2 construct: expressed in transfected cells
T2 sequence (P30988 25-474): T1 sequence (P30988 25-474)
Protocol: as §1, §2, §3, §4

SMILES | Ratio (selectivity hAMYR vs hCTR, ratio of EC50 values at the two receptors) [1] | EC50 [1] [pM] | EC50 [2] [pM]
CC[C@H](C)[C@H](NC(=O)[C@@H]1CCCN1C(=O)CNC(=O)[C@H](Cc1ccccc1)NC(=O)[C@H](CC(N)=O)NC(=O)C(C)(C)NC(=O)[C@H](CO)NC(=O)[C@H](CO)NC(=O)[C@H](Cc1c[nH]cn1)NC(=O)C(C)(C)NC(=O)[C@H](CC(C)C)NC(=O)[C@H](Cc1ccccc1)NC(=O)[C@H](Cc1c[nH]cn1)NC(=O)[C@H](C)NC(=O)[C@H](CC(C)C)NC(=O)[C@H](CCCNC(=N)N)NC(=O)[C@H](CCC(N)=O)NC(=O)[C@@H](NC(=O)[C@H](C)NC(=O)[C@@H]1CSSC[C@H](NC(=O)[C@H](CCCCN)NC(=O)[C@@H](N)CCCCNC(=O)CC[C@H](NC(=O)CCCCCCCCCCCCCCCCC(=O)O)C(=O)O)C(=O)N[C@@H](CC(N)=O)C(=O)N[C@@H]([C@@H](C)O)C(=O)N[C@@H](C)C(=O)N[C@@H]([C@@H](C)O)C(=O)N1)[C@@H](C)O)C(=O)N[C@@H](CC(C)C)C(=O)N1CCC[C@H]1C(=O)N1CCC[C@H]1C(=O)N[C@H](C(=O)N[C@@H](CCC(=O)O)C(=O)N[C@H](C(=O)NCC(=O)N[C@@H](CO)C(=O)N[C@@H](CC(N)=O)C(=O)N[C@H](C(=O)N[C@@H](Cc1ccc(O)cc1)C(N)=O)[C@@H](C)O)C(C)C)[C@@H](C)O [Peptide 86, K(γE-C18diacid)K[CNTATC]ATQRLAHFL(Aib)HSS(Aib)NFGPILPPTEVGSNTY-amide] (H-K([γGlu-C18 diacid])KCNTATCATQRLAHFL[Aib]HSS[Aib]NFGPILPPTEVGSNTY-NH2; disulfide 3-8) | 3 | 119 | 311
CC[C@H](C)[C@H](NC(=O)[C@@H]1CCCN1C(=O)CNC(=O)[C@H](Cc1ccccc1)NC(=O)[C@H](CC(N)=O)NC(=O)[C@H](CCN)NC(=O)[C@H](CO)NC(=O)[C@H](CO)NC(=O)[C@H](Cc1c[nH]cn1)NC(=O)[C@@H](NC(=O)[C@H](CC(C)C)NC(=O)[C@H](Cc1ccccc1)NC(=O)[C@H](CC(N)=O)NC(=O)[C@H](C)NC(=O)[C@H](CC(C)C)NC(=O)[C@H](CCCNC(=N)N)NC(=O)[C@H](CCC(N)=O)NC(=O)[C@@H](NC(=O)[C@H](C)NC(=O)[C@@H]1CSSC[C@H](NC(=O)[C@H](CCCCN)NC(=O)[C@@H](N)CCCCNC(=O)CC[C@H](NC(=O)CCCCCCCCCCCCCCCCC(=O)O)C(=O)O)C(=O)N[C@@H](CC(N)=O)C(=O)N[C@@H]([C@@H](C)O)C(=O)N[C@@H](C)C(=O)N[C@@H]([C@@H](C)O)C(=O)N1)[C@@H](C)O)C(C)C)C(=O)N[C@@H](CC(C)C)C(=O)N1CCC[C@H]1C(=O)N1CCC[C@H]1C(=O)N[C@H](C(=O)N[C@@H](CC(N)=O)C(=O)N[C@H](C(=O)NCC(=O)N[C@@H](CO)C(=O)N[C@@H](CC(N)=O)C(=O)N[C@H](C(=O)N[C@@H](Cc1ccc(O)cc1)C(N)=O)[C@@H](C)O)C(C)C)[C@@H](C)O [Peptide 29, K(γE-C18diacid)K[CNTATC]ATQRLANFLVHSS(Dab)NFGPILPPTNVGSNTY-amide] (H-K([γGlu-C18 diacid])KCNTATCATQRLANFLVHSS[Dab]NFGPILPPTNVGSNTY-NH2; disulfide 3-8; N-terminus assumed) | 34 | 243 | 8210
CC[C@H](C)[C@H](NC(=O)[C@@H]1CCCN1C(=O)CNC(=O)[C@H](Cc1ccccc1)NC(=O)[C@H](CC(N)=O)NC(=O)C(C)(C)NC(=O)[C@H](CO)NC(=O)[C@H](CO)NC(=O)[C@H](Cc1c[nH]cn1)NC(=O)[C@@H](NC(=O)[C@H](CC(C)C)NC(=O)[C@H](Cc1ccccc1)NC(=O)[C@H](CC(N)=O)NC(=O)[C@H](C)NC(=O)[C@H](CC(C)C)NC(=O)[C@H](CCCNC(=N)N)NC(=O)[C@H](CCC(N)=O)NC(=O)[C@@H](NC(=O)[C@H](C)NC(=O)[C@@H]1CSSC[C@H](NC(=O)[C@@H](N)CCCCNC(=O)CC[C@H](NC(=O)CCCCCCCCCCCCCCCCC(=O)O)C(=O)O)C(=O)N[C@@H](CC(N)=O)C(=O)N[C@@H]([C@@H](C)O)C(=O)N[C@@H](C)C(=O)N[C@@H]([C@@H](C)O)C(=O)N1)[C@@H](C)O)C(C)C)C(=O)N[C@@H](CC(C)C)C(=O)N1CCC[C@H]1C(=O)N1CCC[C@H]1C(=O)N[C@H](C(=O)N[C@@H](CC(N)=O)C(=O)N[C@H](C(=O)NCC(=O)N[C@@H](CO)C(=O)N[C@@H](CC(N)=O)C(=O)N[C@H](C(=O)N[C@@H](Cc1ccc(O)cc1)C(N)=O)[C@@H](C)O)C(C)C)[C@@H](C)O [Peptide 56, K(γE-C18diacid)[CNTATC]ATQRLANFLVHSS(Aib)NFGPILPPTNVGSNTY-amide] (H-K([γGlu-C18 diacid])CNTATCATQRLANFLVHSS[Aib]NFGPILPPTNVGSNTY-NH2; disulfide 2-7; N-terminus assumed) | 7 | 70 | 493
CC[C@H](C)[C@H](NC(=O)[C@@H]1CCCN1C(=O)CNC(=O)[C@H](Cc1ccccc1)NC(=O)[C@H](CC(N)=O)NC(=O)[C@H](CC(N)=O)NC(=O)[C@H](CO)NC(=O)[C@H](CO)NC(=O)[C@H](Cc1c[nH]cn1)NC(=O)[C@@H](NC(=O)[C@H](CC(C)C)NC(=O)[C@H](Cc1ccccc1)NC(=O)[C@H](CCN)NC(=O)[C@H](C)NC(=O)[C@H](CC(C)C)NC(=O)[C@H](CCCNC(=N)N)NC(=O)[C@H](CCC(N)=O)NC(=O)[C@@H](NC(=O)[C@H](C)NC(=O)[C@@H]1CSSC[C@H](NC(=O)[C@H](CCCCN)NC(=O)[C@@H](N)CCCCNC(=O)CC[C@H](NC(=O)CCCCCCCCCCCCCCCCC(=O)O)C(=O)O)C(=O)N[C@@H](CC(N)=O)C(=O)N[C@@H]([C@@H](C)O)C(=O)N[C@@H](C)C(=O)N[C@@H]([C@@H](C)O)C(=O)N1)[C@@H](C)O)C(C)C)C(=O)N[C@@H](CC(C)C)C(=O)N1CCC[C@H]1C(=O)N1CCC[C@H]1C(=O)N[C@H](C(=O)N[C@@H](CCC(=O)O)C(=O)N[C@H](C(=O)NCC(=O)N[C@@H](CO)C(=O)N[C@@H](CC(N)=O)C(=O)N[C@H](C(=O)N[C@@H](Cc1ccc(O)cc1)C(N)=O)[C@@H](C)O)C(C)C)[C@@H](C)O [Peptide 34] (H-K([γGlu-C18 diacid])KCNTATCATQRLA[Dab]FLVHSSNNFGPILPPTEVGSNTY-NH2; disulfide 3-8; N-terminus assumed) | 20 | 877 | 17700
CC[C@H](C)[C@H](NC(=O)[C@@H]1CCCN1C(=O)CNC(=O)[C@H](Cc1ccccc1)NC(=O)[C@H](CC(N)=O)NC(=O)C(C)(C)NC(=O)[C@H](CO)NC(=O)[C@H](CO)NC(=O)[C@H](Cc1c[nH]cn1)NC(=O)[C@@H](NC(=O)[C@H](CC(C)C)NC(=O)[C@H](Cc1ccccc1)NC(=O)[C@H](CC(N)=O)NC(=O)[C@H](C)NC(=O)[C@H](CC(C)C)NC(=O)[C@H](CCCNC(=N)N)NC(=O)[C@H](CCC(N)=O)NC(=O)[C@@H](NC(=O)[C@H](C)NC(=O)[C@@H]1CSSC[C@H](NC(=O)[C@@H](N)CCCCNC(=O)CC[C@H](NC(=O)CC[C@H](NC(=O)CCCCCCCCCCCCCCCCC(=O)O)C(=O)O)C(=O)O)C(=O)N[C@@H](CC(N)=O)C(=O)N[C@@H]([C@@H](C)O)C(=O)N[C@@H](C)C(=O)N[C@@H]([C@@H](C)O)C(=O)N1)[C@@H](C)O)C(C)C)C(=O)N[C@@H](CC(C)C)C(=O)N1CCC[C@H]1C(=O)N1CCC[C@H]1C(=O)N[C@H](C(=O)N[C@@H](CC(N)=O)C(=O)N[C@H](C(=O)NCC(=O)N[C@@H](CO)C(=O)N[C@@H](CCCNC(=N)N)C(=O)N[C@H](C(=O)N[C@@H](Cc1ccc(O)cc1)C(N)=O)[C@@H](C)O)C(C)C)[C@@H](C)O [Peptide 72, K(γE-γE-C18diacid)[CNTATC]ATQRLANFLVHSS(Aib)NFGPILPPTNVGSRTY-amide] (H-K([γGlu-γGlu-C18 diacid])CNTATCATQRLANFLVHSS[Aib]NFGPILPPTNVGSRTY-NH2; disulfide 2-7; N-terminus assumed) | 18 | 227 | 4000
